Source: PMC11200585, “Prospects for Prostate Cancer Chemotherapy: Cytotoxic Evaluation and Mechanistic Insights of Quinolinequinones with ADME/PK Profile” (Biomedicines, 2024)

Key:
Format in all cases: cell-based, human
DU-145 cells = assay: Cell cycle assay (flow cytometry, PI); conditions: 24 h, highest concentrations
Procedure: Cells were subjected to AQQ1 and DOXO treatments as previously described for apoptosis necrosis analysis. For cell cycle analysis, a cell population of 1 × 10^6 was collected, centrifuged, and the supernatant was removed. The resulting cellular pellet was re-suspended in 70% cold ethanol in PBS. Subsequently, the cells underwent a single PBS wash, followed by incubation in PBS containing […] PI (Sigma-Aldrich, St. Louis, MO, USA) and 2 mg/mL DNase-free RNase-A (Affymetrix, Inc., Santa Barbara, CA, USA) for 30 min at room temperature in a light-protected environment. Analysis was performed using the BD FACS Calibur Flow Cytometry System, and the BD CellQuest Pro Software software (version 5.1, Becton Dickinson, USA) was employed to determine cell cycle phase distributions in comparison to the control group.

RXF 393 = assay: NCI-60 one-dose screen (renal cancer); conditions: 10 µM single dose, 48 h
CAKI-1 = assay: NCI-60 one-dose screen (renal cancer); conditions: 10 µM single dose, 48 h

SMILES | population of cells in the G0/G1 phase (DU-145 cells) | GP (growth percentage) (RXF 393) [%] | GP (growth percentage) (CAKI-1) [%]
COc1ccccc1NC1=C(Cl)C(=O)c2nc(C)ccc2C1=O [AQQ1] | significantly increased the population of cells in the G0/G1 phase |  | 
COc1cc(NC2=C(Cl)C(=O)c3nc(C)ccc3C2=O)cc(OC)c1 [AQQ5] |  | −97.24 | −96.53
